Our source for the IC50 values is ChEMBL document CHEMBL4665689, “Picrorhizones A-H, Polyprenylated Benzoylphloroglucinols from the Stem Bark of Garcinia picrorhiza” (J Nat Prod, 2020).

The IC50 is the midpoint of a concentration-inhibition curve.

Format in all cases: functional, cell-based
One assay concerns HT-29. Nature of the assay: Cytotoxicity activity against human HT-29 cells assessed as reduction in cell viability after 72 hrs by MTT assay. As to conditions: HT-29, 72 h. (In general: Tetrazolium assays rely on reduction of a dye to a coloured formazan, in cell work by metabolically active cells.)
Another assay concerns MCF7. As to the kind of experiment: Cytotoxicity activity against human MCF7 cells assessed as reduction in cell viability after 72 hrs by MTT assay. As to conditions: MCF7, 72 h.
A further assay relates to HepG2. Nature of the assay: Cytotoxicity activity against human HepG2 cells assessed as reduction in cell viability after 72 hrs by MTT assay. As to conditions: HepG2, 72 h.
For another assay, the system named is HeLa S3. As to the kind of experiment: Cytotoxicity activity against human HeLa S3 cells assessed as reduction in cell viability after 72 hrs by MTT assay. As to conditions: HeLa S3, 72 h.
In a further assay the test system is KB. Nature of the assay: Cytotoxicity activity against human KB cells assessed as reduction in cell viability after 72 hrs by MTT assay.

Take `CC(C)=CC[C@@H]1C[C@]23C[C@@H](CC=C(C)C)C(C)(C)[C@](CC=C(C)C)(C(=O)C(C(=O)c4ccc(O)c(O)c4)=C2OC1(C)C)C3=O`: the 50% inhibitory concentration (IC50) with HT-29 was more than 10 µM; in the assay on MCF7, 7.2 µM; in the assay with HepG2 it was more than 10 µM; in the assay with HeLa S3, more than 10 µM; with KB, 5.3 µM.

With `COc1cccc2c1C(=O)c1c(O)c3c(c(O)c1C2=O)C[C@@](O)(C(=O)CO)C[C@@H]3O[C@H]1C[C@H](N)[C@H](O)[C@H](C)O1` [DOXORUBICIN], the half-inhibitory concentration (IC50) with HT-29 was 0.59 µM; in the assay with HepG2, 1 µM; in the assay on HeLa S3 it was 0.15 µM; in the assay with KB, 0.02 µM.

Take `CC(=O)[C@H]1C[C@@H](C[C@]23C[C@@H](/C=C/C(C)C)C(C)(C)[C@](CC=C(C)C)(C(=O)C(C(=O)c4ccc(O)c(O)c4)=C2O)C3=O)C1(C)C`: the IC50 was more than 10 µM with HT-29; more than 10 µM in the assay on MCF7; more than 10 µM with HepG2; more than 10 µM with HeLa S3; 7.4 µM in the assay with KB.

In the case of `C=C(C)[C@H]1C[C@@H](C[C@@]23C[C@@H](/C=C/C(C)C)C(C)(C)[C@@](CC=C(C)C)(C2=O)c2oc4cc(O)c(O)cc4c(=O)c2C3=O)C1(C)C`, the IC50 is more than 10 µM in the assay on HT-29; more than 10 µM in the assay with MCF7; more than 10 µM in the assay with HepG2; 6.2 µM with HeLa S3; 5.2 µM in the assay with KB.

Regarding `C=C(C)[C@H]1C[C@@H](C[C@]23C[C@@H](/C=C/C(C)C)C(C)(C)[C@](CC=C(C)C)(C(=O)C(C(=O)c4ccccc4)=C2O)C3=O)C1(C)C`, the IC50 in the assay with HT-29 is more than 10 µM; with MCF7, more than 10 µM; in the assay with HepG2, more than 10 µM; in the assay on HeLa S3, more than 10 µM; in the assay on KB, 9.9 µM.

For the molecule `C=C(C)[C@H]1C[C@@H](C[C@]23C[C@@H](/C=C/C(C)C)C(C)(C)[C@@]4(C[C@@H](C(C)(C)O)OC4=C(C(=O)c4ccc(O)c(O)c4)C2=O)C3=O)C1(C)C`, the IC50 in the assay on HT-29 was more than 10 µM; in the assay with MCF7 it was 9.3 µM; in the assay with HepG2, 9.4 µM; with HeLa S3 it was 6 µM; in the assay with KB it was 5.9 µM.

On to `C=C(C)[C@H]1C[C@@H](C[C@]23C[C@@H](/C=C/C(C)C)C(C)(C)[C@](CC=C(C)C)(C(=O)C(C(=O)c4ccc(O)c(O)c4)=C2O)C3=O)C1(C)C`, for which the concentration for half-maximal inhibition (IC50) in the assay with HT-29 was more than 10 µM; in the assay on MCF7, more than 10 µM; with HepG2, more than 10 µM; with HeLa S3, 7.2 µM; with KB, 7 µM.

As for `C=C(C)[C@H]1C[C@@H](C[C@]23C[C@@H](/C=C/C(C)C)C(C)(C)[C@](C/C=C(\C)CO)(C(=O)C(C(=O)c4ccc(O)c(O)c4)=C2O)C3=O)C1(C)C`, the IC50 is 8 µM with HeLa S3 and more than 10 µM in the assay on KB.
